Reference: PMC8708032, “Fragment-Based Ligand Discovery Applied to the Mycolic Acid Methyltransferase Hma (MmaA4) from Mycobacterium tuberculosis: A Crystallographic and Molecular Modelling Study” (Pharmaceuticals, 2021)

Biological target: Hma (MmaA4) (Mycobacterium tuberculosis, UniProt Q79FX8)
Sequence (Q79FX8 4-301): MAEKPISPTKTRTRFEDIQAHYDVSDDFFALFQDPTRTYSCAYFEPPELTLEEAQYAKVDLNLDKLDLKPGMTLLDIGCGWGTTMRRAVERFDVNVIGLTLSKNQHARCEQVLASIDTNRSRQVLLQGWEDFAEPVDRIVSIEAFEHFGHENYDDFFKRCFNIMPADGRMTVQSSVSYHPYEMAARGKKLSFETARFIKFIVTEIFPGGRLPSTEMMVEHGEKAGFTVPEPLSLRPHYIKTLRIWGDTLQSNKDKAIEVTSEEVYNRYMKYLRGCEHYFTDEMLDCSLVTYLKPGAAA

O=Cc1ccc2cccc(O)c2n1 [ZT726]
X-ray crystallography, fragment soak, PanDDA: A second molecule of the ZT260 and ZT320 fragments is located at this position, as well as ZT726
